These results are taken from US10829473B2, “Modulators of the cystic fibrosis transmembrane conductance regulator protein and methods of use” (AbbVie Overseas S.Á.R.L., priority 2017, dated 2020).

Like-named read-outs stand apart in the source and are kept apart here.

The target in this test is T1, F508delCFTR (Homo sapiens, UniProt P13569, DEL508-508).
T1 construct: expressed in transfected cells; host or cells: CFBE41o- human lung derived epithelial cells (CFBE41o-F508delCFTR-HRP), doxycycline-inducible
The experiment in a line: Cell Surface Expression-Horse Radish Peroxidase (CSE-HRP) Assay.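 On EC50 (with co-corrector): co-corrector chromenyl benzoic acid corrector at 2 or 3 µM.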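 On Maximum % activity (without co-corrector): % of on-plate positive control chromenyl benzoic acid corrector at 2 or 3 µM.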 Format: cell-based. The following applies: for Maximum % activity (with co-corrector) / Emax: maximum at any tested concentration; for Emax: read-out: Maximum % activity (without co-corrector). In a few lines:
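Corrector compounds were given as 8-point 3-fold series from 20 or 30 μM, with or without a 2 μM co-corrector, for 18-24 h at 33 °C. Surface HRP was read by luminol luminescence as % of positive control; variable-Hill-slope sigmoidal fitting gave EC50 from triplicate plates.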

Where [1] appears, read: test compound with co-corrector.
[2] abbreviates: test compound with co-corrector, read-out: EC50 (with co-corrector).
[3] abbreviates: test compound without co-corrector.
The mark [4] stands for this setting: test compound without co-corrector, read-out: EC50 (without co-corrector).
[5] abbreviates: test compound alone, without co-corrector, read-out: EC50 (without co-corrector).
[6] abbreviates: with co-corrector, read-out: EC50 (with co-corrector).

A word on the EC50: it is the concentration at which the effect is half-maximal.

T1 sequence (P13569 with tags, fused parts or gaps DEL508-508): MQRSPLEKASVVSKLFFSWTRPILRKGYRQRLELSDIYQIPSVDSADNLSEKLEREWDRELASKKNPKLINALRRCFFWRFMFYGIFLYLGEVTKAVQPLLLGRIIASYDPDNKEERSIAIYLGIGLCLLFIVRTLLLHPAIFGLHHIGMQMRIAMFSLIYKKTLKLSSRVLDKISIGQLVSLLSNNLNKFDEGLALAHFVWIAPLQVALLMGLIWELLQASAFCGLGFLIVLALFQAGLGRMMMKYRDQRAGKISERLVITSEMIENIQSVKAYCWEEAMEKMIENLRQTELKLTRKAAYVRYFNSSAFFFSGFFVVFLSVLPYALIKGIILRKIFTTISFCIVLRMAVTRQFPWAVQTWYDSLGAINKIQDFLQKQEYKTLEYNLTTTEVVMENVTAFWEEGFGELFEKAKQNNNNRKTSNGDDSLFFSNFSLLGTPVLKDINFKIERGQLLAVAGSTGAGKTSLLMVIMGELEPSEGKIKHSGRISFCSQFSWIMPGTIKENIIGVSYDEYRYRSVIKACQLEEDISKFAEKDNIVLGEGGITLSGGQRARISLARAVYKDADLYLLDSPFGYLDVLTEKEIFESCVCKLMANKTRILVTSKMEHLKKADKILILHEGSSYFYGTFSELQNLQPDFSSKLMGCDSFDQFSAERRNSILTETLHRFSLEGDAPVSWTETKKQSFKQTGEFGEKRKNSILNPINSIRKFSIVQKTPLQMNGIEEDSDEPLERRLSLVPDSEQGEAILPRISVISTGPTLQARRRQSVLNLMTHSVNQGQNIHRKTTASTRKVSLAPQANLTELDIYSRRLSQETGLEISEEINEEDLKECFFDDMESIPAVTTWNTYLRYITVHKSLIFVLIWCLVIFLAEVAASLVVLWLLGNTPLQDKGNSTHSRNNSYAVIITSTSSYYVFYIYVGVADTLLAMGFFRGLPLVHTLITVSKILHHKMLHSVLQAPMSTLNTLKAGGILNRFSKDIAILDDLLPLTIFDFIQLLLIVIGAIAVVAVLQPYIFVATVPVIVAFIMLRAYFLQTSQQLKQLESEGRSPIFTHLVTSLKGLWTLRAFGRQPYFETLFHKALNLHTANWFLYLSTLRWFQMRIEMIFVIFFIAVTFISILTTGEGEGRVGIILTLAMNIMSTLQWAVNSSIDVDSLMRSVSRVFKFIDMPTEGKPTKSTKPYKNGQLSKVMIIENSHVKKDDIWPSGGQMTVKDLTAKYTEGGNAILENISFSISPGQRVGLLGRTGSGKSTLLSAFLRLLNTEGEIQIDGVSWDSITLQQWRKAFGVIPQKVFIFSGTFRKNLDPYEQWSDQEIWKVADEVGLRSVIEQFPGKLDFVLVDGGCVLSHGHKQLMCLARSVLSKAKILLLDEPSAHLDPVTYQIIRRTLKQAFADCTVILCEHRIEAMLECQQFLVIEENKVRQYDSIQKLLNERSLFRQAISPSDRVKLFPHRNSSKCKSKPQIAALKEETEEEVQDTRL

As to `CCc1cnc(N2CCC(COC)CC2)c(C2(C(=O)NS(=O)(=O)c3cccc4[nH]ccc34)CC2)c1` [Example GI-120, 1-{5-ethyl-2-[4-(methoxymethyl)piperidin-1-yl]pyridin-3-yl}-N-(1H-indole-4-sulfonyl)cyclopropane-1-carboxamide], under setting [1], the “Maximum % activity (with co-corrector)” value is reported as “+++ (≥350)”. Also, the EC50 is below 3 µM under setting [2] and 3 to 10 µM under setting [4]. For the same molecule, the Emax under setting [3] was above 150%.
Taken in the same sequence, the figures for `COCC1CCN(c2ncc(C3CCC3)cc2C2(C(=O)NS(=O)(=O)c3cccc4ncccc34)CC2)CC1` [Example GI-121, 1-{5-cyclobutyl-2-[4-(methoxymethyl)piperidin-1-yl]pyridin-3-yl}-N-(quinoline-5-sulfonyl)cyclopropane-1-carboxamide] were “+++ (≥350)”, below 3 µM, below 3 µM and above 150%.
Turning to `COc1ccc(Br)cc1C1(C(=O)NS(=O)(=O)c2cccc3ccccc23)CC1` [Example I-1, 1-(5-bromo-2-methoxyphenyl)-N-(naphthalene-1-sulfonyl)cyclopropane-1-carboxamide], the EC50 was below 3 µM under setting [5] and below 3 µM under setting [6]. For the same molecule, the “Maximum % activity (with co-corrector)” value (with co-corrector) was “+++ (≥350)”. Also, the Emax (without co-corrector) is above 150%.
In the case of `COc1ccc(C2CCC2)cc1C1(C(=O)NS(=O)(=O)c2cccc3ccccc23)CC1` [Example I-2, 1-(5-cyclobutyl-2-methoxyphenyl)-N-(naphthalene-1-sulfonyl)cyclopropane-1-carboxamide], the EC50 runs as follows: under setting [5], below 3 µM; under setting [6], below 3 µM. The “Maximum % activity (with co-corrector)” value (with co-corrector) is recorded as “+++ (≥350)”. In addition, the Emax (without co-corrector) is above 150%.
With `COc1ncc(C2CCC2)cc1C1(C(=O)NS(=O)(=O)c2cccc3nc(C)ccc23)CC1` [Example I-3, 1-(5-cyclobutyl-2-methoxypyridin-3-yl)-N-(2-methylquinoline-5-sulfonyl)cyclopropane-1-carboxamide], the concentration for a half-maximal effect (EC50) is, setting by setting: under setting [5], below 3 µM; under setting [6], below 3 µM. Moreover, the “Maximum % activity (with co-corrector)” value (with co-corrector) is listed as “+++ (≥350)”. The Emax (without co-corrector) was above 150%.
Consider `COc1ncc(C2CCC2)cc1C1(C(=O)NS(=O)(=O)c2cccc3ncccc23)CC1` [Example I-4, 1-(5-cyclobutyl-2-methoxypyridin-3-yl)-N-(quinoline-5-sulfonyl)cyclopropane-1-carboxamide], for which the EC50 reads like this: under setting [5], below 3 µM; under setting [6], below 3 µM. Moreover, the “Maximum % activity (with co-corrector)” value (with co-corrector) is reported as “+++ (≥350)”. Also, the Emax (without co-corrector) is above 150%.
Take `COc1ncc(C2CCC2)cc1C1(C(=O)NS(=O)(=O)c2cccc3ccccc23)CC1` [Example I-5, 1-(5-cyclobutyl-2-methoxypyridin-3-yl)-N-(naphthalene-1-sulfonyl)cyclopropane-1-carboxamide]: the concentration giving a half-maximal response (EC50) was 3 to 10 µM under setting [5] and below 3 µM under setting [6]. The “Maximum % activity (with co-corrector)” value (with co-corrector) is given as “+++ (≥350)”. For the same molecule, the Emax (without co-corrector) is above 150%.
On the same counts, the results for `COc1ncc(C2CCC2)cc1C1(C(=O)NS(=O)(=O)c2cccc3c2CCCN3)CC1` [Example I-6, 1-(5-cyclobutyl-2-methoxypyridin-3-yl)-N-(1,2,3,4-tetrahydroquinoline-5-sulfonyl)cyclopropane-1-carboxamide] are below 3 µM, below 3 µM, “+++ (≥350)” and above 150%.
Taken in the same sequence, the figures for `COc1cccc(OC)c1C1(C(=O)NS(=O)(=O)c2cccc3ccccc23)CC1` [Example I-7, 1-(2,6-dimethoxyphenyl)-N-(naphthalene-1-sulfonyl)cyclopropane-1-carboxamide] were 3 to 10 µM, below 3 µM, “+++ (≥350)” and above 150%.
On the same counts, the results for `COc1ncc(C(F)(F)F)cc1C1(C(=O)NS(=O)(=O)c2cccc3ccccc23)CC1` [Example I-8, 1-[2-methoxy-5-(trifluoromethyl)pyridin-3-yl]-N-(naphthalene-1-sulfonyl)cyclopropane-1-carboxamide] are below 3 µM, below 3 µM, “+++ (≥350)” and above 150%.
Consider `COc1ccc(Br)cc1C1(C(=O)NS(=O)(=O)c2cccc3c2CCCN3)CCC1` [Example I-9, 1-(5-bromo-2-methoxyphenyl)-N-(1,2,3,4-tetrahydroquinoline-5-sulfonyl)cyclobutane-1-carboxamide], for which the EC50 under setting [5] was below 3 µM and the half-maximal effective concentration (EC50) under setting [6] was below 3 µM. In addition, under “with co-corrector”, the “Maximum % activity (with co-corrector)” value is “+++ (≥350)”. Moreover, the Emax (without co-corrector) was above 150%.
`COc1ccc(C2CCC2)cc1C1(C(=O)NS(=O)(=O)c2cccc3c2CCCN3)CCC1` [Example I-10, 1-(5-cyclobutyl-2-methoxyphenyl)-N-(1,2,3,4-tetrahydroquinoline-5-sulfonyl)cyclobutane-1-carboxamide]: the 50% effective concentration (EC50) reads like this: under setting [5], 3 to 10 µM; under setting [6], below 3 µM. Further, the “Maximum % activity (with co-corrector)” value (with co-corrector) was “+++ (≥350)”. In addition, for the setting “without co-corrector”, the Emax is above 150%.
On the same counts, the results for `COc1ccc(Br)cc1C1(C(=O)NS(=O)(=O)c2cccc3c2CCCN3)CC1` [Example I-11, 1-(5-bromo-2-methoxyphenyl)-N-(1,2,3,4-tetrahydroquinoline-5-sulfonyl)cyclopropane-1-carboxamide] are below 3 µM, below 3 µM, “+++ (≥350)” and above 150%.
Taken in the same sequence, the figures for `COc1ccc(C2CC2)cc1C1(C(=O)NS(=O)(=O)c2cccc3ccccc23)CC1` [Example I-12, 1-(5-cyclopropyl-2-methoxyphenyl)-N-(naphthalene-1-sulfonyl)cyclopropane-1-carboxamide] were below 3 µM, below 3 µM, “+++ (≥350)” and above 150%.
For `COc1ccc(C2CC2)cc1C1(C(=O)NS(=O)(=O)c2cccc3ncccc23)CC1` [Example I-13, 1-(5-cyclopropyl-2-methoxyphenyl)-N-(quinoline-5-sulfonyl)cyclopropane-1-carboxamide], the EC50 by setting is: under setting [5], below 3 µM; under setting [6], below 3 µM.
For the molecule `COc1ccc(OC(C)C)cc1C1(C(=O)NS(=O)(=O)c2cccc3ncccc23)CC1` [Example I-14, 1-{2-methoxy-5-[(propan-2-yl)oxy]phenyl}-N-(quinoline-5-sulfonyl)cyclopropane-1-carboxamide], the EC50 under setting [5] was below 3 µM and the 50% effective concentration (EC50) under setting [6] was below 3 µM. Besides, the “Maximum % activity (with co-corrector)” value (with co-corrector) is listed as “+++ (≥350)”. Where the note is “without co-corrector”, the Emax was above 150%.
`COc1ncc(C)cc1C1(C(=O)NS(=O)(=O)c2cccc3ccccc23)CC1` [Example I-15, 1-(2-methoxy-5-methylpyridin-3-yl)-N-(naphthalene-1-sulfonyl)cyclopropane-1-carboxamide]: the EC50 is, setting by setting: under setting [5], 3 to 10 µM; under setting [6], 3 to 10 µM. Also, the “Maximum % activity (with co-corrector)” value (with co-corrector) is on record as “+++ (≥350)”. The Emax (without co-corrector) is above 150%.
